Experimental data: patent US8829007B2 (priority 2009, dated 2014)
Counter-ions that a name gives are not always drawn. Like-named read-outs stand apart in the source and are kept apart here.

What was measured:
[1] = test system: influenza A virus (A/PR/8/34); test: microbe, parasite or virus in culture; assay type: cell-based
[2] = test system: A/PR/8/34 influenza virus; test: microbe, parasite or virus in culture; assay type: cell-based
[3] = Influenza A virus, PR/8, MDCK, CPE assay, A/PR/8/34 infected MDCK cells, class symbols, read-out: IC50 (mean all)
[4] = Influenza A virus, PR/8, MDCK, bDNA assay, A/PR/8/34 influenza virus replication in MDCK cells, class symbols, read-out: EC50 (mean all)
[5] = CPE assay, A/PR/8/34 infected MDCK cells, class symbols, read-out: IC50 (mean all)
[6] = bDNA assay, A/PR/8/34 influenza virus replication in MDCK cells, class symbols, read-out: EC50 (mean all)
[7] = mean all, MDCK cells infected with A/PR/8/34, cell protection (CPE), read-out: IC50
[8] = mean all, bDNA viral RNA in MDCK cells infected with A/PR/8/34, read-out: EC50

CC(C)(CO)C(=O)N[C@@H]1CCC[C@H](Nc2nc(-c3c[nH]c4ncc(Cl)cc34)ncc2F)C1 [Compound 650, N-[(1R,3S)-3-[[2-(5-chloro-1H-pyrrolo[2,3-b]pyridin-3-yl)-5-fluoro-pyrimidin-4-yl]amino]cyclohexyl]-3-hydroxy-2,2-dimethyl-propanamide hydrochloride]
IC50 [1, 3]: < 5 µM | EC50 [2, 4]: < 5 µM

O=C(N[C@@H]1CCC[C@H](Nc2nc(-c3c[nH]c4ncc(Cl)cc34)ncc2F)C1)C1CCCCO1 (stereo partly drawn) [Compound 651, N-[(1R,3S)-3-[[2-(5-chloro-1H-pyrrolo[2,3-b]pyridin-3-yl)-5-fluoro-pyrimidin-4-yl]amino]cyclohexyl]tetrahydropyran-2-carboxamide hydrochloride]
IC50 [1, 3]: < 5 µM | EC50 [2, 4]: < 5 µM

O=C(N[C@@H]1CCC[C@H](Nc2nc(-c3c[nH]c4ncc(Cl)cc34)ncc2F)C1)C1CCOC1 (stereo partly drawn) [Compound 652, N-[(1R,3S)-3-[[2-(5-chloro-1H-pyrrolo[2,3-b]pyridin-3-yl)-5-fluoro-pyrimidin-4-yl]amino]cyclohexyl]tetrahydrofuran-3-carboxamide hydrochloride]
IC50 [1, 3]: < 5 µM | EC50 [2, 4]: < 5 µM

N#Cc1cnc(-c2c[nH]c3ncc(Cl)cc23)nc1N[C@H]1CCCN(CC(N)=O)C1 [Compound 654]
IC50 [1, 3]: 5 to 20 µM | EC50 [2, 4]: 5 to 10 µM

Cc1ccc(S(=O)(=O)n2cc(-c3ncc(F)c(N[C@H]4CCCC(C)(O)C4)n3)c3cc(Cl)cnc32)cc1 (stereo partly drawn) [Compound 655]
IC50 [1, 5]: < 5 µM | EC50 [2, 6]: < 5 µM

Cc1ccc(S(=O)(=O)n2cc(-c3ncc(F)c(N[C@H]4CCCC(C)(O)C4)n3)c3cc(Cl)cnc32)cc1 (stereo partly drawn) [Compound 656]
IC50 [1, 5]: < 5 µM | EC50 [2, 6]: < 5 µM

OC[C@H]1CC(Nc2nc(-c3c[nH]c4ncc(Cl)cc34)ncc2F)[C@H](O)[C@@H]1O (stereo partly drawn) [Compound 657]
IC50 [1, 3]: > 10 µM | EC50 [2, 4]: > 3.3 µM

O=C(C1CCCCO1)N1CCCC(Nc2nc(-c3c[nH]c4ncc(Cl)cc34)ncc2F)C1 (stereo not drawn) [Compound 658]
IC50 [1, 5]: < 5 µM | EC50 [2, 6]: < 5 µM

O=C(C1CCCO1)N1CCCC(Nc2nc(-c3c[nH]c4ncc(Cl)cc34)ncc2F)C1 (stereo not drawn) [Compound 660]
IC50 [1, 5]: < 5 µM | EC50 [2, 6]: < 5 µM

N#Cc1cnc2[nH]cc(-c3ncc(F)c(NC4CCCN(CC(N)=O)C4)n3)c2c1 (stereo not drawn) [Compound 661]
IC50 [1, 5]: < 5 µM | EC50 [2, 6]: < 5 µM

Fc1cnc(-c2c[nH]c3ncc(Cl)cc23)nc1NC1CCCN(CC2CCCCO2)C1 (stereo not drawn) [Compound 663]
IC50 [1, 5]: < 5 µM | EC50 [2, 6]: < 5 µM

N#CCN1CCC[C@H](Nc2nc(-c3c[nH]c4ncc(Cl)cc34)ncc2F)C1 [Compound 669]
IC50 [1, 3]: < 5 µM | EC50 [2, 4]: < 5 µM

CCOC(=O)C1=CC(Nc2nc(-c3c[nH]c4ncc(Cl)cc34)ncc2F)[C@@H](NC(C)=O)[C@H](OC(CC)CC)C1 (stereo partly drawn) [Compound 670]
IC50 [1, 3]: > 10 µM | EC50 [2, 4]: > 3.3 µM

CCC(CC)O[C@@H]1CC(C(=O)O)=CC(Nc2nc(-c3c[nH]c4ncc(Cl)cc34)ncc2F)[C@H]1NC(C)=O (stereo partly drawn) [Compound 671]
IC50 [1, 3]: > 10 µM | EC50 [2, 4]: > 3.3 µM

CC(C)(O)c1nc(-c2c[nH]c3ncc(Cl)cc23)nc(NC2CCCCC2C(=O)O)c1F (stereo not drawn) [Compound 673]
IC50 [1, 7]: < 5 µM | EC50 [2, 8]: < 5 µM

Nc1nc(-c2c[nH]c3ncc(Cl)cc23)nc(NC2CCCCC2C(=O)O)c1F (stereo not drawn) [Compound 674]
IC50 [1, 7]: < 5 µM | EC50 [2, 8]: < 5 µM

COC(=O)c1cnc2[nH]cc(-c3ncc(F)c(NC4CCCN(CC(N)=O)C4)n3)c2c1 (stereo not drawn) [Compound 675]
IC50 [1, 7]: > 10 µM | EC50 [2, 8]: > 3.3 µM

Fc1cnc(-c2c[nH]c3ncc(Cl)cc23)nc1NC1CCCN(CC2CCCOC2)C1 (stereo not drawn) [Compound 676]
IC50 [1, 7]: < 5 µM | EC50 [2, 8]: < 5 µM

CC1(C(=O)O)CCCCC1Nc1nc(-c2c[nH]c3ncc(Cl)cc23)ncc1F (stereo not drawn) [Compound 677]
IC50 [1, 7]: < 5 µM | EC50 [2, 8]: < 5 µM

CC1(C(=O)O)CCCCC1Nc1nc(-c2c[nH]c3ncc(F)cc23)ncc1F (stereo not drawn) [Compound 678]
IC50 [1, 7]: < 5 µM | EC50 [2, 8]: < 5 µM

CC(C)(O)C(=O)NC1CCCC(Nc2nc(-c3c[nH]c4ncc(Cl)cc34)ncc2F)C1 (stereo not drawn) [Compound 681]
IC50 [1, 7]: < 5 µM | EC50 [2, 8]: < 5 µM

CC1(C(=O)NC2CCCC(Nc3nc(-c4c[nH]c5ncc(Cl)cc45)ncc3F)C2)CCCO1 (stereo not drawn) [Compound 682]
IC50 [1, 7]: < 5 µM | EC50 [2, 8]: < 5 µM

CCC(=O)NC1CCCC(Nc2nc(-c3c[nH]c4ncc(Cl)cc34)ncc2F)C1 (stereo not drawn) [Compound 683]
IC50 [1, 7]: < 5 µM | EC50 [2, 8]: < 5 µM

O=C(NC1CCCC(Nc2nc(-c3c[nH]c4ncc(Cl)cc34)ncc2F)C1)C1CC1 (stereo not drawn) [Compound 684]
IC50 [1, 7]: < 5 µM | EC50 [2, 8]: < 5 µM

CC(C)C(=O)NC1CCCC(Nc2nc(-c3c[nH]c4ncc(Cl)cc34)ncc2F)C1 (stereo not drawn) [Compound 685]
IC50 [1, 7]: < 5 µM | EC50 [2, 8]: < 5 µM

O=C(O)C1CCCCC1Nc1nc(-c2c[nH]c3ncc(Cl)cc23)nc(C(O)CO)c1F (stereo not drawn) [Compound 687]
IC50 [1, 7]: < 5 µM | EC50 [2, 8]: > 3.3 µM

COC(=O)NC1CCCC(Nc2nc(-c3c[nH]c4ncc(Cl)cc34)nc(C(C)(C)C)c2F)C1 (stereo not drawn) [Compound 688]
IC50 [1, 7]: < 5 µM | EC50 [2, 8]: < 5 µM
